PubChem BioAssay AID248 (DTP/NCI, 2004)
Values joined by “and” are separate entries in the source; they are usually repeats but may differ in a detail not shown here. Identical values can stand only once. Toxic doses and inconclusive results are not listed. No stated cut-off is given here; in the data, active means T/C of 150% or more; inactive means T/C below 125%. Square brackets hold non-standard residues; d marks the D form. Peptide text beside a SMILES is read from it. ξ: configuration not given here. ξN = NC(=O)CC(N)C(=O)O

Tested on: L1210 leukemia ip in BDF1 mice, survival T/C
Assay: NCI In Vivo Anticancer Drug Screen. Data for tumor model L1210 Leukemia (intraperitoneal) in B6D2F1 (BDF1) mice
Settings: endpoint: mean survival time, higher = longer survival
How it was run: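 Antitumor effect is assessed in tumor-bearing animals. Survival in the compound arm is compared with a vehicle-dosed control arm and expressed as their quotient.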

[1] = dose: 100.0 mg/kg/injection, schedule: Q01DX009 (ip), vehicle: Klucel (hydroxypropylcellulose) (HPC)
[2] = dose: 100.0 mg/kg/injection, schedule: Q04DX002 (ip), vehicle: Klucel (hydroxypropylcellulose) (HPC)
[3] = dose: 200.0 mg/kg/injection, schedule: Q01DX009 (ip), vehicle: Klucel (hydroxypropylcellulose) (HPC)
[4] = dose: 200.0 mg/kg/injection, schedule: Q04DX002 (ip), vehicle: Klucel (hydroxypropylcellulose) (HPC)
[5] = dose: 400.0 mg/kg/injection, schedule: Q01DX009 (ip), vehicle: Klucel (hydroxypropylcellulose) (HPC)
[6] = dose: 400.0 mg/kg/injection, schedule: Q04DX002 (ip), vehicle: Klucel (hydroxypropylcellulose) (HPC)
[7] = dose: 100.0 mg/kg/injection, schedule: Q01DX001 (ip), vehicle: saline
[8] = dose: 200.0 mg/kg/injection, schedule: Q01DX001 (ip), vehicle: saline
[9] = dose: 400.0 mg/kg/injection, schedule: Q01DX001 (ip), vehicle: saline
[10] = dose: 100.0 mg/kg/injection, schedule: Q04DX002 (ip), vehicle: saline with Tween-80
[11] = dose: 200.0 mg/kg/injection, schedule: Q04DX002 (ip), vehicle: saline with Tween-80
[12] = dose: 50.0 mg/kg/injection, schedule: Q01DX009 (ip), vehicle: water
[13] = dose: 100.0 mg/kg/injection, schedule: Q01DX009 (ip), vehicle: saline
[14] = dose: 100.0 mg/kg/injection, schedule: Q01DX009 (ip), vehicle: water
[15] = dose: 100.0 mg/kg/injection, schedule: Q04DX003 (ip), vehicle: saline
[16] = dose: 200.0 mg/kg/injection, schedule: Q01DX009 (ip), vehicle: saline
[17] = dose: 200.0 mg/kg/injection, schedule: Q04DX003 (ip), vehicle: saline
[18] = dose: 400.0 mg/kg/injection, schedule: Q04DX003 (ip), vehicle: saline
[19] = dose: 400.0 mg/kg/injection, schedule: Q01DX009 (ip), vehicle: saline
[20] = dose: 100.0 mg/kg/injection, schedule: Q04DX003 (ip), vehicle: saline with Tween-80
[21] = dose: 200.0 mg/kg/injection, schedule: Q04DX003 (ip), vehicle: saline with Tween-80
[22] = dose: 100.0 mg/kg/injection, schedule: Q01DX009 (ip), vehicle: saline with Tween-80
[23] = dose: 200.0 mg/kg/injection, schedule: Q01DX009 (ip), vehicle: saline with Tween-80
[24] = dose: 400.0 mg/kg/injection, schedule: Q04DX002 (ip), vehicle: saline with Tween-80

Measured: T/C

CC(=O)N(c1ccccc1)c1ccccc1
inactive: [1] 95 % of control | [2] 91 % of control | [3] 95 % of control | [4] 98 % of control | [5] 95 % of control | [6] 112 % of control

O=C(NCCc1ccccc1)C1CCN(CCc2ccccc2)CC1
inactive: dose: 100.0 mg/kg/injection, schedule: Q01DX001 (ip), vehicle: other 107 % of control

Cc1ccc(C(=O)c2ccccc2Cc2ccc3ccccc3c2)cc1
inactive: dose: 50.0 mg/kg/injection, schedule: Q01DX001 (ip), vehicle: saline 100 % of control | [7] 94 % of control | [8] 96 % of control | [9] 93 % of control

CN(C)C(=O)Sc1ccc2ccc3ccccc3c2c1
inactive: dose: 50.0 mg/kg/injection, schedule: Q04DX002 (ip), vehicle: saline with Tween-80 108 % of control | [10] 104 % of control | [11] 108 % of control

O=[N+]([O-])CC(O)c1ccc2ccccc2n1 (centres undefined)
inactive: [12] 100 % of control | [13] 91 % of control | [14] 100 % of control | [15] 93 % of control | [16] 94 % of control | dose: 200.0 mg/kg/injection, schedule: Q01DX009 (ip), vehicle: water 87 % of control | [17] 90 % of control

Cc1ccc(NC(=O)c2ccccc2)cc1[As]=[As]c1cc(NC(=O)c2ccccc2)ccc1C (centres undefined)
inactive: dose: 1.0 mg/kg/injection, schedule: Q01DX015 (ip), vehicle: carboxymethylcellulose (CMC) 90 % of control | dose: 2.0 mg/kg/injection, schedule: Q01DX015 (ip), vehicle: carboxymethylcellulose (CMC) 95 % of control | dose: 4.0 mg/kg/injection, schedule: Q01DX015 (ip), vehicle: carboxymethylcellulose (CMC) 101 % of control

C1=CC2c3ccccc3C1c1ccccc12
inactive: dose: 100.0 mg/kg/injection, schedule: Q01DX009 (sc), vehicle: olive oil, sesame oil, peanut oil 101 % of control | dose: 100.0 mg/kg/injection, schedule: Q04DX003 (sc), vehicle: olive oil, sesame oil, peanut oil 102 % of control | dose: 200.0 mg/kg/injection, schedule: Q01DX009 (sc), vehicle: olive oil, sesame oil, peanut oil 103 % of control | dose: 200.0 mg/kg/injection, schedule: Q04DX003 (sc), vehicle: olive oil, sesame oil, peanut oil 95 % of control | dose: 400.0 mg/kg/injection, schedule: Q01DX009 (sc), vehicle: olive oil, sesame oil, peanut oil 102 % of control | dose: 400.0 mg/kg/injection, schedule: Q04DX003 (sc), vehicle: olive oil, sesame oil, peanut oil 93 % of control

CC(C)(C)C1=CC(=O)C(C#N)=C(C#N)C1=O
inactive: [15] 96 % of control

O=C(O)Cc1ccc2ccccc2c1Br
inactive: [15] 97 % of control | [17] 95 % of control | [18] 90 % of control

OC1C2C=CC(C2)C1O (centres undefined)
inactive: dose: 44.0 mg/kg/injection, schedule: Q01DX001 (ip), vehicle: saline 96 % of control | dose: 66.0 mg/kg/injection, schedule: Q01DX001 (ip), vehicle: saline 100 % of control | dose: 150.0 mg/kg/injection, schedule: Q01DX001 (ip), vehicle: saline 94 % of control | [8] 106 % of control | [9] 100 % of control

O=C(O)CN(CC(=O)O)c1ccc(/C=C/c2ccc(N(CC(=O)O)CC(=O)O)c(S(=O)(=O)O)c2)cc1S(=O)(=O)O
inactive: [13] 100 % of control | [15] 112 % of control | [16] 105 % of control | [17] 100 % of control | [19] 103 % of control | [18] 100 % of control

NCC(=O)NC(CC(N)=O)C(=O)O (centres undefined) (H-Gly-[ξN]-OH)
inactive: [13] 97 % of control | [16] 102 % of control | [19] 97 % of control

CCCOP(=O)(OCCC)C(OC(=O)C(C)C)=C(C)C
inactive: [20] 97 % of control | [21] 94 % of control

Nc1nc2ncn(C3OC(CO)C(O)C3O)c2c(=O)[nH]1 (centres undefined)
inactive: [7] 105 % of control | [8] 104 % of control | [9] 104 % of control

CN(N=O)C(=O)NCCc1ccccc1
inactive: dose: 6.25 mg/kg/injection, schedule: Q01DX Z (ip), vehicle: carboxymethylcellulose (CMC) 101 % of control | dose: 12.5 mg/kg/injection, schedule: Q01DX Z (ip), vehicle: carboxymethylcellulose (CMC) 112 % of control | dose: 25.0 mg/kg/injection, schedule: Q01DX Z (ip), vehicle: carboxymethylcellulose (CMC) 93 % of control | dose: 50.0 mg/kg/injection, schedule: Q01DX Z (ip), vehicle: carboxymethylcellulose (CMC) 98 % of control | dose: 100.0 mg/kg/injection, schedule: Q01DX Z (ip), vehicle: carboxymethylcellulose (CMC) 109 % of control | dose: 200.0 mg/kg/injection, schedule: Q01DX Z (ip), vehicle: carboxymethylcellulose (CMC) 98 % of control | dose: 400.0 mg/kg/injection, schedule: Q01DX Z (ip), vehicle: carboxymethylcellulose (CMC) 108 % of control

CSc1ccc(NC(=O)Oc2ccccn2)cc1
inactive: dose: 100.0 mg/kg/injection, schedule: Q01DX001 (ip), vehicle: saline with Tween-80 89 % of control | [22] 97 % of control | [10] 93 % of control and 94 % of control | dose: 200.0 mg/kg/injection, schedule: Q01DX001 (ip), vehicle: saline with Tween-80 103 % of control | [23] 90 % of control | [11] 96 % of control and 114 % of control | [21] 88 % of control | dose: 400.0 mg/kg/injection, schedule: Q01DX001 (ip), vehicle: saline with Tween-80 105 % of control | [24] 95 % of control and 96 % of control | dose: 400.0 mg/kg/injection, schedule: Q04DX003 (ip), vehicle: saline with Tween-80 97 % of control

COc1cc2c(c(OC)c1OC)-c1ccc(SC)c(=O)cc1C(NC1OC(CO)C(O)C(O)C1O)CC2 (centres undefined)
inactive: dose: 12.5 mg/kg/injection, schedule: Q01DX005 (ip), vehicle: saline 100 % of control | dose: 25.0 mg/kg/injection, schedule: Q01DX005 (ip), vehicle: saline 100 % of control | dose: 50.0 mg/kg/injection, schedule: Q01DX005 (ip), vehicle: saline 112 % of control and 119 % of control | dose: 100.0 mg/kg/injection, schedule: Q01DX005 (ip), vehicle: saline 116 % of control

COc1ccc(CN(C)CCN(C)CCN(C)Cc2ccc(OC)cc2)cc1
inactive: dose: 25.0 mg/kg/injection, schedule: Q01DX009 (ip), vehicle: water 105 % of control | [12] 99 % of control | [14] 101 % of control

O=C(O)c1ccc2c(c1Cl)C(=O)c1ccccc1C2=O
inactive: [20] 98 % of control | [21] 93 % of control

CC(=O)Oc1cc(C)[nH]c(=O)c1
inactive: [7] 101 % of control | [8] 105 % of control | [9] 101 % of control

OC12CC(C(F)(F)F)(C(F)(F)F)OC1(O)CC(C(F)(F)F)(C(F)(F)F)O2 (centres undefined)
inactive: [20] 94 % of control | [21] 89 % of control

CCC(Cl)COP(=O)(OCC(Cl)CC)O/C(C)=C(/C)P(=O)(OCC(Cl)CC)OCC(Cl)CC (centres undefined)
inactive: [10] 104 % of control | [11] 96 % of control | [24] 100 % of control

Cc1ccc2c(c1)C(=O)CCS2
inactive: [1] 107 % of control | [3] 100 % of control | [5] 102 % of control

CNc1cccc2c1C(=O)c1ccccc1C2=O
inactive: [2] 96 % of control | [4] 92 % of control | [6] 96 % of control

CC(=O)c1ccc(N=C2C=CC(=O)O2)cc1
inactive: [22] 104 % of control | [23] 105 % of control | dose: 400.0 mg/kg/injection, schedule: Q01DX009 (ip), vehicle: saline with Tween-80 100 % of control

CNc1nc(SCc2ccc(F)cc2)ncc1C
inactive: dose: 25.0 mg/kg/injection, schedule: Q01DX Z (ip), vehicle: methylcellulose (MC) 96 % of control | dose: 50.0 mg/kg/injection, schedule: Q01DX Z (ip), vehicle: methylcellulose (MC) 103 % of control

Fc1c(F)c(F)c(P(c2ccccc2)c2ccccc2)c(F)c1F
inactive: [2] 95 % of control | [4] 95 % of control | [6] 111 % of control

CC(C)C(=O)NN
inactive: [15] 98 % of control | [17] 101 % of control | [18] 101 % of control
